Assay results published in paper PMC8353271, “Functional Characterization of Olfactory Receptors in the Thyroid Gland” (Frontiers in Physiology, 2021).

Biological target: T1, OR2H2 (Homo sapiens, UniProt O95918)
T1 sequence (O95918 1-312): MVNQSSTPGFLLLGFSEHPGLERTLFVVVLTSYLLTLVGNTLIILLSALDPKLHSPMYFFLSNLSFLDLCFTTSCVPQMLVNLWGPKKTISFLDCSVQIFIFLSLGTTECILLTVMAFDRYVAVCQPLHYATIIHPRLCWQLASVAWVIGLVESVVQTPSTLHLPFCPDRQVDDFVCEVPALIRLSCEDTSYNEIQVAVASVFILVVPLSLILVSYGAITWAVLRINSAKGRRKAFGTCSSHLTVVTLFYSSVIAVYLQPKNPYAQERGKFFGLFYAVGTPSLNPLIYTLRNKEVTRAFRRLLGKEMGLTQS
Test: Fura-2 Ca2+ imaging in Nthy-ori […]-1 cells (endogenous receptor), response reduced by CRISPR/Cas9 OR2H2 knockout; cAMP assay
Format: cell-based

aldehyde 13-13
EC50: 366 µM
